Measurements published in ChEMBL document CHEMBL5038623, “Synthesis and bioactivities of new N-terminal dipeptide mimetics with aromatic amide moiety: Broad-spectrum antibacterial activity and high antineoplastic activity” (Eur J Med Chem, 2022).
≈ marks a conversion by molar mass, not a printed value.

How the values were obtained:
Escherichia coli [1] = assay: Antibacterial activity against Escherichia coli ATCC25922 assessed as reduction in microbial growth after 24 hrs by broth dilution method; format: functional; conditions: ATCC 25922
[2] = Hemolytic activity in rabbit RBC measured after 1 hrs by microplate reader assay; format: toxicity, cell-based, Oryctolagus cuniculus, Erythrocyte; conditions: rabbit red blood cells (RBC)
Escherichia coli [3] = assay: Antibacterial activity against Escherichia coli ATCC25922 assessed as zone of inhibition incubated for 12 hrs by disc diffusion method; format: functional, ATCC 25922
Staphylococcus aureus [4] = assay: Antibacterial activity against methicillin-resistant Staphylococcus aureus ATCC 33591 assessed as MIC incubated for 12 hrs
[5] = Selectivity index, HC50 for hemolytic activity in rabbit RBC to MIC for antibacterial activity against methicillin-resistant Staphylococcus aureus ATCC 33591; format: toxicity; conditions: rabbit red blood cells (RBC), read-out: Selectivity Index
Klebsiella pneumoniae = assay: Antibacterial activity against Klebsiella pneumoniae ATCC 700603 assessed as reduction in microbial growth after 24 hrs by broth dilution method; format: functional
Staphylococcus aureus [6] = assay: Antibacterial activity against Staphylococcus aureus ATCC 6538 assessed as zone of inhibition incubated for 12 hrs by disc diffusion method; format: functional
Staphylococcus aureus [7] = assay: Antibacterial activity against Staphylococcus aureus ATCC 6538 assessed as reduction in microbial growth after 24 hrs by broth dilution method; format: functional

Question: Which MIC (Escherichia coli [1]) does the source give for `C#Cc1cccc(NC(=O)[C@@H](N)Cc2ccccc2)c1` here?
Answer: 39 µg/mL

Question: What about the HC50 at 1 h [2] of the same molecule?
Answer: > 1250 µg/mL

Question: What about the “diameter of the inhibition zone (DIZ)” value (Escherichia coli [3]) of the same molecule?
Answer: 10 mm

Question: What about the MIC (Staphylococcus aureus [4]) of the same molecule?
Answer: 20 µg/mL (≈ 75.7 µM)

Question: What about the selectivity ratio [5] of the same molecule?
Answer: > 62.5

Question: What about the MIC (Klebsiella pneumoniae) of the same molecule?
Answer: 39 µg/mL

Question: And the “diameter of the inhibition zone (DIZ)” value (Staphylococcus aureus [6])?
Answer: 10.2 mm

Question: What about the MIC (Staphylococcus aureus [7]) of the same molecule?
Answer: 20 µg/mL

Question: With `CCCCCCNC(=O)[C@@H](N)C(C)C` as the molecule, how does the MIC (Escherichia coli [1]) read?
Answer: 20 µg/mL

Question: And the HC50 at 1 h [2]?
Answer: 392 µg/mL

Question: And the “diameter of the inhibition zone (DIZ)” value (Escherichia coli [3])?
Answer: 16.4 mm

Question: What about the MIC (Staphylococcus aureus [4]) of the same molecule?
Answer: 78 µg/mL (≈ 389 µM)

Question: What about the selectivity ratio [5] of the same molecule?
Answer: 10

Question: And the MIC (Klebsiella pneumoniae)?
Answer: 78 µg/mL

Question: What about the “diameter of the inhibition zone (DIZ)” value (Staphylococcus aureus [6]) of the same molecule?
Answer: 12 mm

Question: And the MIC (Staphylococcus aureus [7])?
Answer: 39 µg/mL

Question: Which MIC (Escherichia coli [1]) does the source give for `C#Cc1ccc(NC(=O)[C@@H](N)C(C)CC)cc1` (some centres not stated) here?
Answer: 20 µg/mL

Question: And the HC50 at 1 h [2]?
Answer: 813 µg/mL

Question: What about the “diameter of the inhibition zone (DIZ)” value (Escherichia coli [3]) of the same molecule?
Answer: 12.3 mm

Question: And the MIC (Staphylococcus aureus [4])?
Answer: 39 µg/mL (≈ 169 µM)

Question: And the selectivity ratio [5]?
Answer: 20.8

Question: What about the MIC (Klebsiella pneumoniae) of the same molecule?
Answer: 39 µg/mL

Question: What about the “diameter of the inhibition zone (DIZ)” value (Staphylococcus aureus [6]) of the same molecule?
Answer: 12 mm

Question: And the MIC (Staphylococcus aureus [7])?
Answer: 39 µg/mL

Question: For `Cc1ccc(NC(=O)[C@@H](N)C(C)C)cc1`, which MIC (Escherichia coli [1]) is on record?
Answer: > 1250 µg/mL

Question: What about the MIC (Klebsiella pneumoniae) of the same molecule?
Answer: > 1250 µg/mL

Question: And the MIC (Staphylococcus aureus [7])?
Answer: > 1250 µg/mL

Question: Which MIC (Escherichia coli [1]) does the source give for `C#Cc1ccc(NC(=O)[C@@H](N)CC(C)C)cc1` here?
Answer: 10 µg/mL

Question: And the HC50 at 1 h [2]?
Answer: 789 µg/mL

Question: And the “diameter of the inhibition zone (DIZ)” value (Escherichia coli [3])?
Answer: 14.5 mm

Question: What about the MIC (Staphylococcus aureus [4]) of the same molecule?
Answer: 10 µg/mL (≈ 43.4 µM)

Question: What about the selectivity ratio [5] of the same molecule?
Answer: 158

Question: What about the MIC (Klebsiella pneumoniae) of the same molecule?
Answer: 10 µg/mL

Question: And the “diameter of the inhibition zone (DIZ)” value (Staphylococcus aureus [6])?
Answer: 17.7 mm

Question: And the MIC (Staphylococcus aureus [7])?
Answer: 5 µg/mL

Question: For `CN[C@H](CC(C)C)C(=O)N[C@H]1C(=O)N[C@@H](CC(N)=O)C(=O)N[C@H]2C(=O)N[C@H]3C(=O)N[C@H](C(=O)N[C@H](C(=O)O)c4cc(O)cc(O)c4-c4cc3ccc4O)[C@H](O)c3ccc(c(Cl)c3)Oc3cc2cc(c3O[C@@H]2O[C@H](CO)[C@@H](O)[C@H](O)[C@H]2O[C@H]2C[C@](C)(N)[C@H](O)[C@H](C)O2)Oc2ccc(cc2Cl)[C@H]1O` [VANCOMYCIN], which MIC (Escherichia coli [1]) is on record?
Answer: 156 µg/mL

Question: And the MIC (Staphylococcus aureus [4])?
Answer: 1.25 µg/mL (≈ 0.863 µM)

Question: What about the MIC (Klebsiella pneumoniae) of the same molecule?
Answer: 1250 µg/mL

Question: And the MIC (Staphylococcus aureus [7])?
Answer: < 0.63 µg/mL

Question: For `CC(C)[C@H](N)C(=O)Nc1ccc(I)cc1`, which MIC (Escherichia coli [1]) is on record?
Answer: 39 µg/mL

Question: What about the HC50 at 1 h [2] of the same molecule?
Answer: 794 µg/mL

Question: What about the MIC (Staphylococcus aureus [4]) of the same molecule?
Answer: 20 µg/mL (≈ 62.9 µM)

Question: And the selectivity ratio [5]?
Answer: 39.7

Question: And the MIC (Klebsiella pneumoniae)?
Answer: 39 µg/mL

Question: What about the “diameter of the inhibition zone (DIZ)” value (Staphylococcus aureus [6]) of the same molecule?
Answer: 17.6 mm

Question: What about the MIC (Staphylococcus aureus [7]) of the same molecule?
Answer: 20 µg/mL

Question: For `C#Cc1cccc(NC(=O)[C@@H](N)C(C)C)c1`, which MIC (Escherichia coli [1]) is on record?
Answer: 10 µg/mL

Question: What about the HC50 at 1 h [2] of the same molecule?
Answer: 836 µg/mL

Question: What about the “diameter of the inhibition zone (DIZ)” value (Escherichia coli [3]) of the same molecule?
Answer: 15.4 mm

Question: And the MIC (Staphylococcus aureus [4])?
Answer: 20 µg/mL (≈ 92.5 µM)

Question: What about the selectivity ratio [5] of the same molecule?
Answer: 83.6

Question: What about the MIC (Klebsiella pneumoniae) of the same molecule?
Answer: 20 µg/mL

Question: And the “diameter of the inhibition zone (DIZ)” value (Staphylococcus aureus [6])?
Answer: 15.7 mm

Question: And the MIC (Staphylococcus aureus [7])?
Answer: 10 µg/mL

Question: For `C#Cc1cccc(NC(=O)[C@H](N)C(C)C)c1`, which MIC (Escherichia coli [1]) is on record?
Answer: 39 µg/mL

Question: And the HC50 at 1 h [2]?
Answer: > 1250 µg/mL

Question: What about the “diameter of the inhibition zone (DIZ)” value (Escherichia coli [3]) of the same molecule?
Answer: 10 mm

Question: And the MIC (Staphylococcus aureus [4])?
Answer: 20 µg/mL (≈ 92.5 µM)

Question: And the selectivity ratio [5]?
Answer: > 125

Question: What about the MIC (Klebsiella pneumoniae) of the same molecule?
Answer: 20 µg/mL

Question: And the “diameter of the inhibition zone (DIZ)” value (Staphylococcus aureus [6])?
Answer: 11.5 mm

Question: What about the MIC (Staphylococcus aureus [7]) of the same molecule?
Answer: 10 µg/mL
